For assay [1], the target named is T1, IRAK1 (Homo sapiens, UniProt P51617).
T1 construct: purchased Reaction Biology (RBC HotSpot)
As to the kind of experiment: RBC HotSpot Kinase Assay, IRAK1. Type of assay: biochemical. The settings on record: isolated kinase enzyme, 33P-ATP, P81 filter-binding. In short, it runs like this: (§1)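 Radiometric HotSpot assay of catalytic activity with isolated recombinant kinase, possibly truncated or kinase domain only. Buffer: 20 mM Hepes pH 7.5, 10 mM MgCl2, 1 mM EGTA, 0.01% Brij35, 0.02 mg/ml BSA, 0.1 mM Na3VO4, 2 mM DTT, 1% DMSO, with cofactors specific to each kinase.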

The subject of assay [2] is MOLM14 D835Y cells. Kind of assay: MOLM14 D835Y cell viability assay (Cell Titer Glo). The settings on record: Homo sapiens, MOLM-14, 48 h, cell viability, Cell Titer Glo, 48 hours; read-out: MOLM14 D835Y IC50. The format is cell-based. In short, it runs like this:
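MOLM14 cells with FLT3 D835Y or F691L kinase-domain resistance mutations seeded at 1000 cells/well and exposed to compound for 48 h under standard incubator conditions. Viability read by CellTiter-Glo luminescence after 15 min at room temperature.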
For orientation: In ATP-based viability assays light output follows the ATP content of the culture.

Assay [3] addresses T2, FLT3 (Homo sapiens, UniProt P36888).
T2 sequence (P36888 27-993): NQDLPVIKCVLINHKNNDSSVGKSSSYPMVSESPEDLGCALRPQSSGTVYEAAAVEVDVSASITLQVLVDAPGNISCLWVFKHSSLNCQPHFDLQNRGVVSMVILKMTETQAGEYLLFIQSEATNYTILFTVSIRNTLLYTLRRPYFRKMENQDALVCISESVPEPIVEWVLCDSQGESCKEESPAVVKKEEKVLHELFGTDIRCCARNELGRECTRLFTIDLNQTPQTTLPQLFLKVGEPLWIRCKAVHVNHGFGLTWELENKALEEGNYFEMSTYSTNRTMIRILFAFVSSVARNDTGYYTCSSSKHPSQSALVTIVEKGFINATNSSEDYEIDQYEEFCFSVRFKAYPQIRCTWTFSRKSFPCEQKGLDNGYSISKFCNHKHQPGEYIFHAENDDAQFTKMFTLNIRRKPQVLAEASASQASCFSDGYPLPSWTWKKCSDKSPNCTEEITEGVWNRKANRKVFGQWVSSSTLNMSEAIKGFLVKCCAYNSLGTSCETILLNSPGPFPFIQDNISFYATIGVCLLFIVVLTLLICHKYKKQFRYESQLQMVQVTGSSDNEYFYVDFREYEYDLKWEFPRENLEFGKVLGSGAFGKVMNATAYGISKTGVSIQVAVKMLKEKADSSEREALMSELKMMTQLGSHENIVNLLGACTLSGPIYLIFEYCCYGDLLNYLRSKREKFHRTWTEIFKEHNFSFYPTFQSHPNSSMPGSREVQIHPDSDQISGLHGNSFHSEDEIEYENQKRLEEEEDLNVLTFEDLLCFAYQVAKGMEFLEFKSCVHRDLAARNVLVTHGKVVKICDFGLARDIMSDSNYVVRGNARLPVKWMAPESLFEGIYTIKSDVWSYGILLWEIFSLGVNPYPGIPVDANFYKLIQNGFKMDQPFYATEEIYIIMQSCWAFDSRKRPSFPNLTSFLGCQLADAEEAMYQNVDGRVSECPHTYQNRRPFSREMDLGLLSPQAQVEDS
As to the kind of experiment: RBC HotSpot Kinase Assay, FLT3. Type of assay: biochemical. Details: purchased Reaction Biology (RBC HotSpot). The note with it: isolated kinase enzyme, 33P-ATP, P81 filter-binding. Summed up:
as §1

In assay [4] the test system is MOLM14 F691L cells. As to the kind of experiment: MOLM14 F691L cell viability assay (Cell Titer Glo). The settings on record: Homo sapiens, MOLM-14; cell viability, Cell Titer Glo, 48 hours; read-out: MOLM14 F691L IC50. The format is cell-based. The procedure:
Both cell lines have activated FLT3 receptors, each of which carry additional resistance mutations in the kinase domain (D835Y and F691L, respectively).
For viability/cytotoxicity assessments, cells were seeded into 1536-well white polystyrene tissue culture-treated Greiner plates using a Multidrop Combi dispenser (ThermoFisher), in final volume 5 μL of growth media per well, at a density of 1000 cells per well. […] Plates were incubated for 48 hours at standard incubator conditions covered by a stainless steel gasketed lid to prevent evaporation. 48 hours post compound addition, 3 μL of Cell Titer Glo (Promega) were added to each well and plates were incubated at room temperature for 15 minutes with the stainless-steel lid in place. Luminescence readings were taken using a Viewlux imager (PerkinElmer) with a 2 second exposure time per plate.

The target of assay [5] is T3, IRAK4 (Homo sapiens, UniProt Q9NWZ3).
T3 sequence (Q9NWZ3 1-460): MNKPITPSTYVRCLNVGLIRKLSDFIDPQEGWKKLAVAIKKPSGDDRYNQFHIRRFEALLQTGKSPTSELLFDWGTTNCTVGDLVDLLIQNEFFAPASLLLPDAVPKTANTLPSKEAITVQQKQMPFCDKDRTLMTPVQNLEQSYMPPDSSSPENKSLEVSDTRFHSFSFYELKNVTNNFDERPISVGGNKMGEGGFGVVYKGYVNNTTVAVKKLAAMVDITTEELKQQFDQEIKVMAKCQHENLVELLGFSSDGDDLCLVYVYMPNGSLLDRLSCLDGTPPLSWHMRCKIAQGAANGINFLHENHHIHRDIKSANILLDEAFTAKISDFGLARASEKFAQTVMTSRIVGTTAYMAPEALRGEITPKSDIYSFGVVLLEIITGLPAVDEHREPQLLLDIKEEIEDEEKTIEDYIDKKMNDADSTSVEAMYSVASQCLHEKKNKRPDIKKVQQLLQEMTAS
Kind of assay: RBC HotSpot Kinase Assay, IRAK4. The format is biochemical. Details: purchased Reaction Biology (RBC HotSpot). The note with it: isolated kinase enzyme, 33P-ATP, P81 filter-binding. Summed up: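 Radiometric filter-binding activity assay with isolated recombinant kinase (construct may be truncated or catalytic domain only) in 20 mM Hepes pH 7.5, 10 mM MgCl2, 1 mM EGTA, 2 mM DTT, 1% DMSO. Compound preincubated 20 min with kinase/substrate; reaction started with 33P-ATP, run 2 h at room temperature.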

Molecules are shown by their SMILES.

T1 sequence (P51617 whole entry): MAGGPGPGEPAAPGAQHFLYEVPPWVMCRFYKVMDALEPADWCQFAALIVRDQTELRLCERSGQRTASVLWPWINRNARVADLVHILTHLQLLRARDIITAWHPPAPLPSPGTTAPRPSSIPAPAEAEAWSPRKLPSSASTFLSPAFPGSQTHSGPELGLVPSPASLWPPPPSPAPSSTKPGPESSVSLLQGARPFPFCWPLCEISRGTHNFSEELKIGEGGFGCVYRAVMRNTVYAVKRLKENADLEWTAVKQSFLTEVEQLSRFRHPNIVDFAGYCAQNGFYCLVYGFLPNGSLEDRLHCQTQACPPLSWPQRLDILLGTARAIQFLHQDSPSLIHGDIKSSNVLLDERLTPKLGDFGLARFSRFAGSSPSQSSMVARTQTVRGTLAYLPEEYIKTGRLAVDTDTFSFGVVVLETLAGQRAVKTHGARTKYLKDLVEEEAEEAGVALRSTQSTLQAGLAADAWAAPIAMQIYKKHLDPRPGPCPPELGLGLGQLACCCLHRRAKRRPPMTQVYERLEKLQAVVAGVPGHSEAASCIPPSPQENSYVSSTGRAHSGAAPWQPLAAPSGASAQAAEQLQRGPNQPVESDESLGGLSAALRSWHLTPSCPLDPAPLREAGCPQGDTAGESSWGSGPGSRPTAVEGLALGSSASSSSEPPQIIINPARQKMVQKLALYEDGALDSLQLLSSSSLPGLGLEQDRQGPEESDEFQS

One may read the IC50 as the concentration needed to halve the response being measured. As to `COc1cc2ncc(-c3ccnc(N[C@H]4CNC[C@@H]4F)n3)n2nc1C1CC2(CCC2)C1` [Compound 75a, N-((3S,4S)-4-fluoropyrrolidin-3-yl)-4-(7-methoxy-6-(spiro[3.3]heptan-2-yl)imidazo[1,2-b]pyridazin-3-yl)pyrimidin-2-amine], the IC50 in assay [1] was 102 nM; in assay [2], 63 nM; in assay [3], under 0.5 nM; in assay [4] it was 634 nM; in assay [5], 6 nM.
For `COc1cc2ncc(-c3ccnc(N[C@@H]4CCCNC4)n3)n2nc1C1CC2(CCC2)C1` [Compound 76a, (R)-4-(7-methoxy-6-(spiro[3.3]heptan-2-yl)imidazo[1,2-b]pyridazin-3-yl)-N-(piperidin-3-yl)pyrimidin-2-amine], the 50% inhibitory concentration (IC50) was 37 nM in assay [1]; 101 nM in assay [2]; under 0.5 nM in assay [3]; 1130 nM in assay [4]; 21 nM in assay [5].
The corresponding values for `COc1cc2ncc(-c3ccnc(N[C@H]4CNC[C@@H]4F)n3)n2nc1C1CCC1` [Compound 77a, 4-(6-cyclobutyl-7-methoxyimidazo[1,2-b]pyridazin-3-yl)-N-((3S,4S)-4-fluoropyrrolidin-3-yl)pyrimidin-2-amine] are 12 nM, 16 nM, under 0.5 nM, 142 nM and 1 nM.
In the same order, the values of `COc1cc2ncc(-c3ccnc(N[C@H]4CNC[C@@H]4F)n3)n2nc1C1CC(C)(C)C1` [Compound 80a, 4-(6-(3,3-dimethylcyclobutyl)-7-methoxyimidazo[1,2-b]pyridazin-3-yl)-N-((3S,4S)-4-fluoropyrrolidin-3-yl)pyrimidin-2-amine] are 142 nM, 90 nM, under 0.5 nM, 798 nM and 17 nM.
In the same order, the values of `COc1cc2ncc(-c3ccnc(N[C@@H]4CCCNC4)n3)n2nc1C1CC(C)(C)C1` [Compound 81a] are 49 nM, 90 nM, under 0.5 nM, 1260 nM and 55 nM.
With `COc1cc2ncc(-c3ccnc(N[C@H]4CNC[C@@H]4F)n3)n2nc1C1CCCC1` [Compound 83a, 4-(6-cyclopentyl-7-methoxyimidazo[1,2-b]pyridazin-3-yl)-N-((3S,4S)-4-fluoropyrrolidin-3-yl)pyrimidin-2-amine], the IC50 was 8 nM in assay [1]; 16 nM in assay [2]; under 0.5 nM in assay [3]; 113 nM in assay [4]; 0.6 nM in assay [5].
For `COc1cc2ncc(-c3ccnc(N[C@@H]4CCCNC4)n3)n2nc1C1CCCC1` [Compound 84a, (R)-4-(6-cyclopentyl-7-methoxyimidazo[1,2-b]pyridazin-3-yl)-N-(piperidin-3-yl)pyrimidin-2-amine], the IC50 in assay [1] is 18 nM; in assay [2], 14 nM; in assay [3], under 0.5 nM; in assay [4] it was 113 nM; in assay [5] it was 2 nM.
The corresponding values for `COc1cc2ncc(-c3ccnc(N[C@H]4CNCC[C@@H]4F)n3)n2nc1C1CCCC1` [Compound 85a, 4-(6-cyclopentyl-7-methoxyimidazo[1,2-b]pyridazin-3-yl)-N-((3S,4S)-4-fluoropiperidin-3-yl)pyrimidin-2-amine] are 7 nM, 11 nM, under 0.5 nM, 90 nM and 1 nM.
In the same order, the values of `COc1cc2ncc(-c3ccnc(N[C@H]4CNC[C@@H]4F)n3)n2nc1C1CCCCC1` [Compound 86a, 4-(6-cyclohexyl-7-methoxyimidazo[1,2-b]pyridazin-3-yl)-N-((3S,4S)-4-fluoropyrrolidin-3-yl)pyrimidin-2-amine] are 16 nM, 18 nM, under 0.5 nM, 142 nM and 1 nM.

Source of the values: patent US20260226048A1, “MULTI-CYCLIC IRAK AND FLT3 INHIBITING COMPOUNDS AND USES THEREOF” (CHILDREN'S HOSPITAL MEDICAL CENTER, priority 2023, published 2026).
